The results in this text go back to patent US4264734A, “Process for producing antibiotic desacetyl 890A10” (Merck & Co., Inc., priority 1979, dated 1981).

Data set [1] concerns Staphylococcus aureus ATCC 6538P. As to the kind of experiment: Electrophoresis followed by bioactivity on Staphylococcus aureus assay plate. The format is cell-based. Particulars: after incubation of 890A10 with cell sonicate and electrophoresis at pH 7.1; 37° C., 18 hours. The method, then:
The flasks are shaken at 28° C. on a 220 rpm (2" throw) shaker for 4 days. A 30 ml. portion from each flask is centrifuged for 15 minutes at 8,000 rpm. The supernatant portion is removed, leaving only enough to form a thick suspension of cells and media solids. Half of the suspension is subjected to ultrasonic disruption using a Branson Instrument Model LS-75 Sonifier with a 1/2 inch probe. The input power is set at position No. 4, and four successive 15 second cycles of irradiation are used, while chilling the suspension in ice water during and between disruption. To test for the presence of N-acetyl-890A10 amidohydrolase activity, a 10-μl. portion of the sonicate is mixed with 25 μl. of an 890A10 solution containing 500 μg. per ml. Controls containing antibiotic and buffer alone; and sonicated cells and buffer without antibiotic are also run. After incubation overnight at 28° C., 10 μl. quantities are applied to Schleicher and Schuell No. 2043-B paper. Using 0.03 M potassium phosphate buffer pH 7.1, a voltage gradient of 50 volts/cm. is applied for 30 minutes. The paper is placed on a Staphylococcus aureus ATCC 6538P plate and incubated at 37° C. for 18 hours. […]
The flask is shaken at 28° C. on a 220 rpm (2-inch throw) shaker for four days. […] After incubation overnight at 28° C., 10-μl. quantities are applied to Schleicher & Schuell No. 2043-B paper. […]

A short description of data set [2]: Stability under acidic conditions in aqueous solution. The format is physicochemical.
Data set [3] has as its system Vibrio percolans ATCC 8461. The data set can be described thus: Assay for 890 Assay Units, agar plate disc-diffusion method, cephaloridine as standard. The format is cell-based. Particulars: 25 mm. zone of inhibition on a 5 ml. plate. The method, then:
II. Assay Procedure for Determining "890 Assay Units" A conventional agar plate disc-diffusion method is employed using Vibrio percolans ATCC 8461 as tester organism. Cephaloridine is employed as a standard. Plates containing Vibrio percolans ATCC 8461 are prepared as follows. A culture of Vibrio percolans ATCC 8461 is incubated in nutrient broth-yeast extract overnight on a rotary shaker at 28° C. and then diluted to a density of 60% transmittance at 660 nm. A 33.2 ml. portion of this diluted culture is added to 1 liter of a medium composed of nutrient agar plus 0.2% yeast extract maintained at 46° C. The inoculated agar-containing medium is poured into 100×15 mm. plastic-petri dishes, 10 ml. per dish, chilled, and maintained at 2°-4° C. for up to 5 days before use. The concentration of cephaloridine which is equivalent to 1 unit/ml. of 890A1 is determined by assay on plates prepared as above, but containing 5 ml. of inoculated medium per plate, as follows. Four concentrations of cephaloridine constitute the standard--3.12, 6.25, 12.5 and 25 mcg per ml. with the 12.5 mcg per ml. as a reference solution. The zone diameters on a 5 ml. plate for the standard are as follows: A unit is defined as the amount of antibiotic per ml. producing a 25 mm. zone of inhibition on a 5 ml. plate as described in section I above. […]
(In general: Agar diffusion results depend on both activity and mobility in agar.)

For data set [4], the system named is gram-positive and gram-negative bacteria. As to the kind of experiment: Antibacterial activity (general statement). Particulars: no test values printed. The format is cell-based.

`CC(=O)NCCSC1=C(C(=O)O)N2C(=O)C(C(C)OS(=O)(=O)O)C2C1` (centres unmarked) [890A10]: in data set [1], the “bioactive spot on Staphylococcus aureus plate” value is listed as “bioactive”. Further, the “stability under acidic conditions” value in data set [2] was “unstable”.

On to `O=C(Cc1cccs1)N[C@@H]1C(=O)N2C(C(=O)[O-])=C(C[n+]3ccccc3)CS[C@H]12` [cephaloridine], for which the “concentration considered equivalent to 1 unit of 890A1 per ml” value in data set [3] is 12.5 mcg per ml.

Consider `CC(OS(=O)(=O)O)C1C(=O)N2C(C(=O)O)=C(SCCN)CC12` (centres unmarked) [desacetyl 890A10], for which the “bioactive spot on Staphylococcus aureus plate” value in data set [1] is listed as “bioactive”. Moreover, in data set [4], the antibacterial activity result is “active against various gram-positive and gram-negative bacteria”.
